In patent publication US8455688B2, “HDAC inhibitors” (Lixte Biotechnology, Inc., priority 2007, dated 2013):
In brackets after ≈: the same amount, converted by molar mass. Entries after “also recorded” stand apart in the source; their conditions may differ. Like-named read-outs stand apart in the source and are kept apart here. Each block holds one molecule with its values, some of them ahead of it.

Experiments:
A. fumigatus = experiment: Broth dilution antifungal susceptibility testing, A. fumigatus; type: cell-based, Aspergillus fumigatus; conditions: Aspergillus fumigatus, 80% inhibition, read-out: minimum inhibitory concentration (MIC)
Method: (§1) A total of 23 isolates were tested to include 3 Candida albicans, 3 Candida glabrata, 3 Cryptococcus neoformans, 3 Aspergillus fumigatus, 3 Rhizopus oryzae, 3, Fusarium solani, 3 Pseudallescheria boydii, and 2 […]. All isolates were clinical isolates submitted to the Fungus Testing Laboratory for evaluation. Antifungal susceptibility testing was accomplished according to the methods outlined in the National Committee for Clinical Laboratory Standards, M-27A2, Reference Method for Broth Dilution Antifungal Susceptibility Testing of Yeasts; Approved Standard, and M38-A “Reference Method for Broth Dilution Antifungal Susceptibility Testing of Conidium-Forming Filamentous Fungi; Approved Standard”. This includes testing in RPMI-1640 with glutamine and without bicarbonate, an inoculum size of 0.5-2.5×10^3 for yeasts or […] for moulds, and incubation at 35° C. for 24 and 48 hours. […] Drug concentrations were 0.125-64 μg/ml. A 10 mg portion of each powder was weighed out and added to 1 ml of 100% DMSO for compound 205. The resulting concentration of […] was diluted to a working concentration of 6400 μg/ml for compound 205 in 100% DMSO. All subsequent dilutions were also made using the respective diluents. Final testing concentrations ranged from 0.125-64 μg/ml. The NCCLS recommended medium RPMI-1640 (Hardy Diagnostics, Santa Monica, Calif.) was utilized as the test medium. All isolates in this study were clinical isolates received in the Fungus Testing Laboratory for standard antifungal susceptibility testing and/or identification. Isolates, which were not sent for identification, were confirmed to assure testing integrity. A total of 23 were tested to include 3 Candida albicans, 3 Candida glabrata, 3 Cryptococcus neoformans, 3 Aspergillus fumigatus, 3 Rhizopus oryzae, 3, Fusarium solani, 3 Pseudallescheria boydii, and 2 […]. Minimum inhibitory concentrations (MIC) were determined at the first 24-hour interval where growth could be determined in the drug-free control tube.

C. glabrata = experiment: Broth dilution antifungal susceptibility testing, C. glabrata; type: cell-based, Candida glabrata; conditions: Nakaseomyces glabratus, 50% reduction in turbidity, read-out: minimum inhibitory concentration (MIC)
Method: as §1

U87 GBM xenografts = experiment: Inhibition of U87 GBM xenografts; conditions: in vivo
cell line U-87 = experiment: Activity against the cell line U-87; type: cell-based, human; conditions: potency on an equimolar basis
CP Control = experiment: Broth dilution antifungal susceptibility testing, CP Control; type: cell-based; conditions: read-out: minimum inhibitory concentration (MIC)
Method: as §1

GBM xenograft = GBM xenograft tumor volume in SCID mice; type: in vivo; conditions: for inhibition of GBM xenograft tumor volume: tumor cells implanted subcutaneously, 0, 7, 14, 21 and 28 days
S. apiospermum = experiment: Broth dilution antifungal susceptibility testing, S. apiospermum; type: cell-based, Pseudallescheria boydii; conditions: Scedosporium apiospermum, 80% inhibition, read-out: minimum inhibitory concentration (MIC)
Method: as §1

F. solani = experiment: Broth dilution antifungal susceptibility testing, F. solani; type: cell-based; conditions: Fusarium solani, 80% inhibition, read-out: minimum inhibitory concentration (MIC)
Method: as §1

R. arrhizus = experiment: Broth dilution antifungal susceptibility testing, R. arrhizus; type: cell-based, Rhizopus oryzae; conditions: Rhizopus arrhizus, 80% inhibition, read-out: minimum inhibitory concentration (MIC)
Method: as §1

C. albicans = experiment: Broth dilution antifungal susceptibility testing, C. albicans; type: cell-based, Candida albicans; conditions: Candida albicans, 50% reduction in turbidity, read-out: minimum inhibitory concentration (MIC)
Method: as §1

T. rubrum = experiment: Broth dilution antifungal susceptibility testing, T. rubrum; type: cell-based, Trichophyton rubrum; conditions: Trichophyton rubrum, 80% inhibition, read-out: minimum inhibitory concentration (MIC)
Method: as §1

C. neoformans = experiment: Broth dilution antifungal susceptibility testing, C. neoformans; type: cell-based; conditions: Cryptococcus neoformans, 50% reduction in turbidity, read-out: minimum inhibitory concentration (MIC)
Method: as §1

[1] = 24 h, isolate 06-4126, 24 hours
[2] = 24 h, isolate 07-2039, 24 hours
[3] = 48 h, isolate 06-4126, 48 hours
[4] = 48 h, isolate 07-2039, 48 hours
[5] = 24 h, isolate 07-2964, 24 hours
[6] = 24 h, isolate 07-2965, 24 hours
[7] = 24 h, isolate 07-3013, 24 hours
[8] = 48 h, isolate 07-2964, 48 hours
[9] = 48 h, isolate 07-2965, 48 hours
[10] = 48 h, isolate 07-3013, 48 hours
[11] = 24 h, isolate 07-1333, 24 hours
[12] = 24 h, isolate 07-1502, 24 hours
[13] = 24 h, isolate 07-1601, 24 hours
[14] = 48 h, isolate 07-1333, 48 hours
[15] = 48 h, isolate 07-1502, 48 hours
[16] = 48 h, isolate 07-1601, 48 hours
[17] = 24 h, isolate 07-1399, 24 hours
[18] = 24 h, isolate 07-1755, 24 hours
[19] = 24 h, isolate 07-1867, 24 hours
[20] = 48 h, isolate 07-1399, 48 hours
[21] = 48 h, isolate 07-1755, 48 hours
[22] = 48 h, isolate 07-1867, 48 hours
[23] = 24 h, isolate 07-1870, 24 hours
[24] = 24 h, isolate 07-2044, 24 hours
[25] = 24 h, isolate 07-2078, 24 hours
[26] = 48 h, isolate 07-1870, 48 hours
[27] = 48 h, isolate 07-2044, 48 hours
[28] = 48 h, isolate 07-2078, 48 hours
[29] = 24 h, isolate 07-3006, 24 hours
[30] = 24 h, isolate 07-3011, 24 hours
[31] = 24 h, isolate 07-3012, 24 hours
[32] = 48 h, isolate 07-3006, 48 hours
[33] = 48 h, isolate 07-3011, 48 hours
[34] = 48 h, isolate 07-3012, 48 hours
[35] = 24 h, isolate 07-1743, 24 hours
[36] = 24 h, isolate 07-2055, 24 hours
[37] = 48 h, isolate 07-1743, 48 hours
[38] = 48 h, isolate 07-2055, 48 hours
[39] = 24 h, isolate 07-2665, 24 hours
[40] = 24 h, isolate 07-2737, 24 hours
[41] = 24 h, isolate 07-2829, 24 hours
[42] = 48 h, isolate 07-2665, 48 hours
[43] = 48 h, isolate 07-2737, 48 hours
[44] = 48 h, isolate 07-2829, 48 hours

MIC (A. fumigatus; 24 h, isolate 05-388, 24 hours): 16 µg/mL (≈ 46.6 µM)
MIC (A. fumigatus; [1]): 16 µg/mL (≈ 46.6 µM)
MIC (A. fumigatus; [2]): 8 µg/mL (≈ 23.3 µM)
MIC (A. fumigatus; 48 h, isolate 05-388, 48 hours): > 64 µg/mL
MIC (A. fumigatus; [3]): > 64 µg/mL
MIC (A. fumigatus; [4]): > 64 µg/mL
MIC (C. glabrata; [5]): 32 µg/mL (≈ 93.2 µM)
MIC (C. glabrata; [6]): 32 µg/mL (≈ 93.2 µM)
MIC (C. glabrata; [7]): 32 µg/mL (≈ 93.2 µM)
MIC (C. glabrata; [8]): 64 µg/mL (≈ 186 µM)
MIC (C. glabrata; [9]): 64 µg/mL (≈ 186 µM)
MIC (C. glabrata; [10]): 64 µg/mL (≈ 186 µM)
MIC (CP Control; 24 hours): 32 µg/mL (≈ 93.2 µM)
MIC (CP Control; 48 hours): 32 µg/mL (≈ 93.2 µM)
MIC (S. apiospermum; [11]): 8 µg/mL (≈ 23.3 µM)
MIC (S. apiospermum; [12]): 32 µg/mL (≈ 93.2 µM)
MIC (S. apiospermum; [13]): 2 µg/mL (≈ 5.82 µM)
MIC (S. apiospermum; [14]): 16 µg/mL (≈ 46.6 µM)
MIC (S. apiospermum; [15]): 64 µg/mL (≈ 186 µM)
MIC (S. apiospermum; [16]): 4 µg/mL (≈ 11.6 µM)
MIC (F. solani; [17]): 64 µg/mL (≈ 186 µM)
MIC (F. solani; [18]): > 64 µg/mL
MIC (F. solani; [19]): 32 µg/mL (≈ 93.2 µM)
MIC (F. solani; [20]): > 64 µg/mL
MIC (F. solani; [21]): > 64 µg/mL
MIC (F. solani; [22]): 64 µg/mL (≈ 186 µM)
MIC (R. arrhizus; [23]): > 64 µg/mL
MIC (R. arrhizus; [24]): 64 µg/mL (≈ 186 µM)
MIC (R. arrhizus; [25]): 64 µg/mL (≈ 186 µM)
MIC (R. arrhizus; [26]): > 64 µg/mL
MIC (R. arrhizus; [27]): 64 µg/mL (≈ 186 µM)
MIC (R. arrhizus; [28]): > 64 µg/mL
MIC (C. albicans; [29]): 32 µg/mL (≈ 93.2 µM)
MIC (C. albicans; [30]): 32 µg/mL (≈ 93.2 µM)
MIC (C. albicans; [31]): 32 µg/mL (≈ 93.2 µM)
MIC (C. albicans; [32]): 64 µg/mL (≈ 186 µM)
MIC (C. albicans; [33]): > 64 µg/mL
MIC (C. albicans; [34]): 64 µg/mL (≈ 186 µM)
MIC (T. rubrum; [35]): 16 µg/mL (≈ 46.6 µM)
MIC (T. rubrum; [36]): 8 µg/mL (≈ 23.3 µM)
MIC (T. rubrum; [37]): 32 µg/mL (≈ 93.2 µM)
MIC (T. rubrum; [38]): 16 µg/mL (≈ 46.6 µM)
MIC (C. neoformans; [39]): 32 µg/mL (≈ 93.2 µM)
MIC (C. neoformans; [40]): 32 µg/mL (≈ 93.2 µM)
MIC (C. neoformans; [41]): 32 µg/mL (≈ 93.2 µM)
MIC (C. neoformans; [42]): 32 µg/mL (≈ 93.2 µM)
MIC (C. neoformans; [43]): 32 µg/mL (≈ 93.2 µM)
MIC (C. neoformans; [44]): 32 µg/mL (≈ 93.2 µM)
SMILES: O=C(CCCCCNC(=O)c1ccccc1S)Nc1cccnc1 [Compound 205, 2-Mercapto-N-[5-(pyridin-3-ylcarbamoyl)pentyl]benzamide]
inhibition of U87 GBM xenografts compared to control (U87 GBM xenografts): significant inhibition
activity against the cell line U-87 (cell line U-87): most potent on an equimolar basis
activity relative to an equimolar dose of SAHA (GBM xenograft; GBM xenograft, subcutaneous): more active than, an equimolar dose of SAHA
inhibition of GBM xenograft tumor volume (GBM xenograft): inhibited the growth of GBM xenograft tumor volume; also recorded: active

MIC (A. fumigatus; 24 h, isolate 05-388, 24 hours): 16 µg/mL (≈ 41.5 µM)
MIC (A. fumigatus; [1]): 8 µg/mL (≈ 20.8 µM)
MIC (A. fumigatus; [2]): 8 µg/mL (≈ 20.8 µM)
MIC (A. fumigatus; 48 h, isolate 05-388, 48 hours): > 64 µg/mL
MIC (A. fumigatus; [3]): 64 µg/mL (≈ 166 µM)
MIC (A. fumigatus; [4]): > 64 µg/mL
MIC (C. glabrata; [5]): 32 µg/mL (≈ 83 µM)
MIC (C. glabrata; [6]): 32 µg/mL (≈ 83 µM)
MIC (C. glabrata; [7]): 32 µg/mL (≈ 83 µM)
MIC (C. glabrata; [8]): > 64 µg/mL
MIC (C. glabrata; [9]): > 64 µg/mL
MIC (C. glabrata; [10]): > 64 µg/mL
MIC (CP Control; 24 hours): 8 µg/mL (≈ 20.8 µM)
MIC (CP Control; 48 hours): 64 µg/mL (≈ 166 µM)
MIC (S. apiospermum; [11]): 1 µg/mL (≈ 2.59 µM)
MIC (S. apiospermum; [12]): 8 µg/mL (≈ 20.8 µM)
MIC (S. apiospermum; [13]): 2 µg/mL (≈ 5.19 µM)
MIC (S. apiospermum; [14]): 2 µg/mL (≈ 5.19 µM)
MIC (S. apiospermum; [15]): 16 µg/mL (≈ 41.5 µM)
MIC (S. apiospermum; [16]): 2 µg/mL (≈ 5.19 µM)
MIC (F. solani; [17]): > 64 µg/mL
MIC (F. solani; [18]): > 64 µg/mL
MIC (F. solani; [19]): 64 µg/mL (≈ 166 µM)
MIC (F. solani; [20]): > 64 µg/mL
MIC (F. solani; [21]): > 64 µg/mL
MIC (F. solani; [22]): > 64 µg/mL
MIC (R. arrhizus; [23]): 32 µg/mL (≈ 83 µM)
MIC (R. arrhizus; [24]): 32 µg/mL (≈ 83 µM)
MIC (R. arrhizus; [25]): > 64 µg/mL
MIC (R. arrhizus; [26]): 64 µg/mL (≈ 166 µM)
MIC (R. arrhizus; [27]): 64 µg/mL (≈ 166 µM)
MIC (R. arrhizus; [28]): > 64 µg/mL
MIC (C. albicans; [29]): 64 µg/mL (≈ 166 µM)
MIC (C. albicans; [30]): 64 µg/mL (≈ 166 µM)
MIC (C. albicans; [31]): > 64 µg/mL
MIC (C. albicans; [32]): > 64 µg/mL
MIC (C. albicans; [33]): > 64 µg/mL
MIC (C. albicans; [34]): > 64 µg/mL
MIC (T. rubrum; [35]): 0.25 µg/mL (≈ 0.648 µM)
MIC (T. rubrum; [36]): 0.25 µg/mL (≈ 0.648 µM)
MIC (T. rubrum; [37]): 0.25 µg/mL (≈ 0.648 µM)
MIC (T. rubrum; [38]): 0.25 µg/mL (≈ 0.648 µM)
MIC (C. neoformans; [39]): 16 µg/mL (≈ 41.5 µM)
MIC (C. neoformans; [40]): 16 µg/mL (≈ 41.5 µM)
MIC (C. neoformans; [41]): 64 µg/mL (≈ 166 µM)
MIC (C. neoformans; [42]): 32 µg/mL (≈ 83 µM)
MIC (C. neoformans; [43]): 32 µg/mL (≈ 83 µM)
MIC (C. neoformans; [44]): 64 µg/mL (≈ 166 µM)
SMILES: CN(C)c1ccc(NC(=O)CCCCCNC(=O)c2ccccc2S)cc1 [Compound 206, 2-Mercapto-N-[5-(4-dimethylamino-3-yl-carbamoyl)pentyl]benzamide]
inhibition of U87 GBM xenografts compared to control (U87 GBM xenografts): significant inhibition
activity against the cell line U-87 (cell line U-87): most potent on an equimolar basis
inhibition of GBM xenograft tumor volume (GBM xenograft): inhibited the growth of GBM xenograft tumor volume
